Entries after “also recorded” stand apart in the source; their conditions may differ.
What was measured:
Caco-2 cell monolayers = assay: Intestinal mucosal permeation using Caco-2 cell monolayers; conditions: for Efflux ratio: Papp (B→A) / Papp (A→B); for Efflux ratio / Percentage recovery A→B / Percentage recovery B→A: 120 min, 5 µM; for Papp A→B / Percentage recovery A→B: apical to basolateral; for Papp A→B / Papp B→A: 5 μM, 37° C., 2 hours, pH 7.4; for Papp B→A / Percentage recovery B→A: basolateral to apical
Experimental: The Caco-2 cell culture medium was prepared consisting of Dulbecco's Modified Eagle's Medium (DMEM) with high glucose and L-glutamine supplemented with 10% FBS, 1× penicillin-streptomycin mixture and 1× non-essential amino acids (NEAA). • 2. The 50 μL of culture medium was added to each well of the Transwell insert. Transwell insert was removed from reservoir and 25 mL of culture medium was added. • 3. Incubated at 37° C., 5% CO2 for 1 hour. Plates were ready for cell seeding. • 4. The cells were cultivated in T-75 flasks in a cell culture incubator set at 37° C., 5% CO2, 95% relative humidity. The cells were allowed to reach 80-90% confluence before detaching and splitting. • 5. The cultivated cells were rinsed in T-75 flasks with 5 mL PBS. Aspirated off, 1.5 mL trypsin/EDTA was added, and incubated at 37° C. for approximately 5 to 10 minutes or until the cells detach and float. Trypsin/EDTA was inactivated by adding excess serum containing medium. • 6. The cell suspension was moved to a conical tube and cells were pelleted by centrifugation at 120×g for 10 minutes. • 7. The cells were resuspended in seeding medium at a density of 6.86×10^5 cells/mL. This cell concentration can be used to seed 2.40×10^5 cells/cm^2. […] Seeding and Feeding of Caco-2 Cells in Transwell Plates • 1. 50 μL of above cell suspension was added to each well of a previously prepared Transwell plate. • 2. The plate was incubated for 14-18 days. The medium was replaced every other day, beginning no sooner than 48 hours after initial plating. • 3. The procedure for medium changes was as follows. The plate was removed from incubator and placed in hood. The medium was aspirated from reservoir and each Transwell insert. 75 μL of culture medium was added to each well of Transwell inserts and 25 mL of culture medium was added to reservoir tray. The plate was returned to incubator.
When the 14-day Caco-2 cultured cells have reached confluence and are differentiated, they were ready to be used for transport studies. • 2. The medium was removed from reservoir and Transwell inserts. • 3. 75 μL of pre-warmed culture medium was added to each transwell insert and 25 mL of reservoir tray. • 4. The electrical resistance across the monolayer was measured using automated tissue resistance measuring system (World Precision Instruments, Sarasota, FL). • 5. The electrical resistance was recorded for each well. • 6. Once all wells were measured, the plate was returned to incubator. • 7. TEER of each well was calculated by the equation below. The TEER value of each well should be greater than 230 ohms-cm^2. TEER measurement (ohms)×Area of membrane (cm^2)=TEER value (ohm-cm^2)
The Caco-2 plate was removed from the incubator. Next, the monolayer was washed, and the volume exchanged two times using pre-warmed HBSS (10 mM HEPES, pH 7.4). Then the plate was incubated for 30 minutes at 37° C. • 1 mM stock solutions of control compounds and test compound(s) were prepared in DMSO and diluted with HBSS (10 mM HEPES, pH 7.4) to reach the final concentration of 5 μM. The final concentration of DMSO in the incubation system was 0.5%. Digoxin, prazosin and propranolol were used as control compounds in this assay. • 3. HBSS (10 mM HEPES, pH 7.4) was removed after 30 minutes pre-incubation. • 4. The rate of drug transport was incubated in the apical to basolateral direction. 75 μL of the control compounds and test compound was added to the Transwell insert (apical compartment). The wells were filled in the receiver plate (basolateral compartment) with 235 μL of HBSS (10 mM HEPES, pH 7.4). • 5. The rate of drug transport was determined in the basolateral to apical direction. 235 μL of the control compounds and test compound(s) was added to the receiver plate wells (basolateral compartment). The Transwell insert (apical compartment) was filled with 75 μL of HBSS (10 mM HEPES, pH 7.4). • 6. […] Incubated at 37° C. for 2 hours. • 8.

5-HT2 receptor = conditions: rat brain, daily administration; cited from earlier work
[1] = system: brain's default mode network; conditions: humans, intravenous; cited from earlier work
[2] = patients; psilocybin-assisted psychotherapy or supportive setting; cited from earlier work
[3] = EEG during sleep; cited from earlier work
in vitro = conditions: human, liver microsomes, Remaining Percentage after 60 min, human liver microsomes, without cofactors
Experimental: (§1) The concentrations of parent compounds in reaction systems were evaluated by LC-MS/MS for estimating the stability in pooled human, male rat and male mouse liver microsomes. The in vitro intrinsic clearances of test compounds were determined as well. Protocol
(§2) A master solution in the “Incubation Plate” containing phosphate buffer, ultra-pure H2O, MgCl2 solution and liver microsomes was made according to Table 6. The mixture was pre-warmed at 37° C. water bath for 5 minutes.
(§3) The reaction was started with the addition of 4 μL of 200 μM exemplary test compounds of the application or control compounds to each master solution to get the final concentration of 2 μM. This study was performed in duplicate.
(§4) Aliquots of 50 μL were taken from the reaction solution at 0, 15, 30, 45 and 60 minutes. The reaction solutions were stopped by the addition of 4 volumes of cold methanol with IS (100 nM alprazolam, 200 nM imipramine, 200 nM labetalol and 2 μM ketoprofen). Samples were centrifuged at 3,220 g for 40 minutes. Aliquot of 90 μL of the supernatant was mixed with 90 μL of ultra-pure H2O and then was used for LC-MS/MS analysis.
(§5) All calculations were carried out using Microsoft Excel. Peak area ratios of test compound to internal standard (listed in the below table) were determined from extracted ion chromatograms.
(§6) All calculations were carried out using Microsoft Excel. Peak areas were determined from extracted ion chromatograms. The slope value, k, was determined by linear regression of the natural logarithm of the remaining percentage of the parent drug vs. incubation time curve.
(§7) The in vitro half-life (in vitro t½) was determined from the slope value:
(§8) Conversion of the in vitro t½ (min) into the in vitro intrinsic clearance (in vitro CLint, in μL/min/mg proteins) was done using the following equation (mean of duplicate determinations):

[4] = Rat liver microsomes stability; conditions: Remaining Percentage after 60 min
Experimental: as §1, §2, §3, §4, §5, §6, §7, §8

[5] = Mouse liver microsomes stability; conditions: Remaining Percentage after 60 min
Experimental: as §1, §2, §3, §4, §5, §6, §7, §8

Experimental for Dog plasma stability: (§9) The stock solution of test compound was prepared in DMSO and diluted at the final concentration of 200 μM.
(§10) • a. 2.5 μL of 200 μM or 1 mM test compound or control compound solution was spiked to 497.5 μL plasma to reach a final concentration of 1 μM or 5 μM. The final concentration of organic solvents was 0.5%. The assay was performed in duplicated. • b. The reaction samples were incubated at 37° C. at approximately 60 rpm in a water bath. • c. Aliquots of 50 μL were taken from the reaction samples at 0, 30, 60, 120, 180 and 240 minutes. The reaction was stopped by the addition of 7 volumes of cold acetonitrile containing internal standards (IS: 100 nM alprazolam, 200 nM imipramine, 200 nM labetalol and 2 μM ketoprofen). • d. All samples were vortexed for 2 minutes, followed by centrifugation at 3,220 g for 30 minutes to precipitate proteins. 100 μL of the supernatant was transferred to a new plate. The supernatant was diluted with ultrapure water according to the LC-MS signal response and peak shape.
(§11) Samples were Analyzed by LC-MS/MS. • LC system: Shimadzu • MS analysis: Triple Quad™ 6500+ from AB Inc (Canada) with an ESI interface • Column temperature: 40° C. • Column: Xselect® Hss T3 2.5μ (2.1×30 mm) coupled with preguard column • Mobile phase: 0.1% formic acid in water (A) and 0.1% formic acid in acetonitrile (B)
(§12) All calculations were carried out using Microsoft Excel. Remaining percentages of parent compounds at each time point were estimated by determining the peak area ratios from extracted ion chromatograms.
Experimental for Human plasma stability: as §9, §10, §11, §12
Experimental for Mouse plasma stability: as §9, §10, §11, §12
Experimental for Rat plasma stability: as §9, §10, §11, §12

SMILES: CC[C@H](C)C(=O)O[C@H]1C[C@@H](C)C=C2C=C[C@H](C)[C@H](CC[C@@H]3C[C@@H](O)CC(=O)O3)[C@H]21 [Lovastatin, reference compound]
- Remaining Percentage (Rat plasma stability; rat plasma, 0 min): 100.00%
- remaining at 0.5 h (Rat plasma stability; rat, plasma): 0%
- remaining at 1 h (Rat plasma stability; rat, plasma): 0%
- remaining at 2 h (Rat plasma stability; rat, plasma): 0%
- remaining at 3 h (Rat plasma stability; rat, plasma): 0%
- remaining at 4 h (Rat plasma stability; rat, plasma): 0%
- Remaining Percentage (Dog plasma stability; dog plasma, 0 min): 100.00%
- remaining at 0.5 h (Dog plasma stability; dog, plasma): 101%
- remaining at 1 h (Dog plasma stability; dog, plasma): 64.8%
- remaining at 2 h (Dog plasma stability; dog, plasma): 40.8%
- remaining at 3 h (Dog plasma stability; dog, plasma): 22.4%
- remaining at 4 h (Dog plasma stability; dog, plasma): 11%

SMILES: CC(C)NCC(O)COc1cccc2ccccc12 (stereo not drawn) [Propranolol]
- Efflux ratio (Caco-2 cell monolayers): 0.69
- Papp A→B (Caco-2 cell monolayers): 33.5 cm/s × 10^−6
- Percentage recovery A→B (Caco-2 cell monolayers): 91.34%
- Papp B→A (Caco-2 cell monolayers): 23.09 cm/s × 10^−6
- Percentage recovery B→A (Caco-2 cell monolayers): 92.59%

SMILES: CCN(CC)C(=O)[C@@H]1C=C2c3cccc4[nH]cc(c34)C[C@H]2N(C)C1 [LSD]
- 5-HT2 receptor density (5-HT2 receptor): selectively decreased 5-HT2 receptor density in the rat brain; also recorded: reduce 5-HT2 receptor density in rat brain
- oscillatory power [1]: decreases in oscillatory power in areas of the brain's default mode network
- relief of depression and anxiety [2]: significant and sustained anti-depressant and anxiolytic effects
- sleep patterns [3]: positively affect sleep patterns

SMILES: CC(C)[N+](C)(CCOC(=O)C1c2ccccc2Oc2ccccc21)C(C)C [Propantheline, reference compound]
- T1/2 (Human plasma stability; human plasma, 37° C., N.A. if no peak detected at 30 min): 9.53 min
- remaining at 0.5 h (Human plasma stability; human, plasma): 18.7%
- remaining at 1 h (Human plasma stability; human, plasma): 1.28%
- remaining at 3 h (Human plasma stability; human, plasma): 0%
- remaining at 4 h (Human plasma stability; human, plasma): 0%
- Remaining Percentage (Mouse plasma stability; mouse plasma, 0 min): 100.00%
- T1/2 (Mouse plasma stability; mouse plasma, 37° C., N.A. if no peak detected at 30 min): 34.36 min
- remaining at 0.5 h (Mouse plasma stability; mouse, plasma): 65.3%
- remaining at 1 h (Mouse plasma stability; mouse, plasma): 32.5%
- remaining at 2 h (Mouse plasma stability; mouse, plasma): 9.12%
- remaining at 3 h (Mouse plasma stability; mouse, plasma): 2.9%
- remaining at 4 h (Mouse plasma stability; mouse, plasma): 0.87%

SMILES: COc1cc2nc(N3CCN(C(=O)c4ccco4)CC3)nc(N)c2cc1OC [Prazosin]
- Efflux ratio (Caco-2 cell monolayers): 3.28
- Papp A→B (Caco-2 cell monolayers): 10.14 cm/s × 10^−6
- Percentage recovery A→B (Caco-2 cell monolayers): 79.47%
- Papp B→A (Caco-2 cell monolayers): 33.06 cm/s × 10^−6
- Percentage recovery B→A (Caco-2 cell monolayers): 104.81%

SMILES: O=C(O)Cc1ccccc1Nc1c(Cl)cccc1Cl [Diclofenac]
- remaining at 1 h, 2 µM (in vitro): 95.9%
- remaining at 1 h, 2 µM ([4]; with cofactors): 7.11%
- remaining at 1 h, 2 µM ([4]; without cofactors): 97.9%
- remaining at 1 h, 2 µM ([5]; with cofactors): 35.9%
- remaining at 1 h, 2 µM ([5]; without cofactors): 97.9%

SMILES: C[C@H]1O[C@@H](O[C@H]2[C@@H](O)C[C@H](O[C@H]3[C@@H](O)C[C@H](O[C@H]4CC[C@@]5(C)[C@H](CC[C@@H]6[C@@H]5C[C@@H](O)[C@]5(C)[C@@H](C7=CC(=O)OC7)CC[C@]65O)C4)O[C@@H]3C)O[C@@H]2C)C[C@H](O)[C@@H]1O [Digoxin]
- Efflux ratio (Caco-2 cell monolayers): 35.38
- Papp A→B (Caco-2 cell monolayers): 0.53 cm/s × 10^−6
- Percentage recovery A→B (Caco-2 cell monolayers): 86.58%
- Papp B→A (Caco-2 cell monolayers): 18.89 cm/s × 10^−6
- Percentage recovery B→A (Caco-2 cell monolayers): 104.27%
